Assay results published in the supplement of paper PMC10307832.

Columns and labels:
Assay in all cases: relative viability (nuclei count vs DMSO), 5 days (fraction); higher = more cells survive
[1] = compound: NS(=O)(=O)OC[C@@H]1C[C@@H](n2ccc3c(N[C@H]4CCc5ccccc54)ncnc32)C[C@@H]1O [MLN4924] + CC(=O)Nc1cccc(-n2c(=O)n(C3CC3)c(=O)c3c(Nc4ccc(I)cc4F)n(C)c(=O)c(C)c32)c1 [Trametinib] (partner 0.02 µM)
Method in brief: (§1)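 Relative viability divides the nuclei count in treated wells by that in vehicle wells. Lung cancer cell lines were seeded in 1536-well plates, dosed by pin tool the next day, and fixed and stained after 5 days in one step with final 0.05% Triton X-100, 1% formaldehyde and 1 ug/ml Hoechst. Dosing was a single drug or a fixed anchor-drug dose plus five library-drug doses (not always all listed) in √10 steps, and values are medians of duplicate plates imaged at 4×.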

[2] = compound: C1CC(C1)(C(=O)O)C(=O)O.[NH2-].[NH2-].[Pt+2] [Carboplatin] + Nc1ncn([C@H]2C[C@H](O)[C@@H](CO)O2)c(=O)n1 [Decitabine] (partner 2 µM)
Method in brief: as §1

[3] = compound: CC[C@H](C)N1C=C(C2=C(C=C(C=C21)C3=CN=C(C=C3)N4CCNCC4)C(=O)NCC5=C(C=C(NC5=O)C)C)C [GSK126] + Cc1nc(Nc2ncc(C(=O)Nc3c(C)cccc3Cl)s2)cc(N2CCN(CCO)CC2)n1 [Dasatinib] (partner 0.075 µM)
Method in brief: as §1

[4] = compound: NS(=O)(=O)OC[C@@H]1C[C@@H](n2ccc3c(N[C@H]4CCc5ccccc54)ncnc32)C[C@@H]1O [MLN4924] + CC(C)C[C@H](NC(=O)[C@H](Cc1ccccc1)NC(=O)c1cnccn1)B(O)O [Bortezomib] (partner 0.002 µM)
Method in brief: as §1

Row | Cell Line | relative viability ([1]; first compound 0.04 µM) | relative viability ([1]; first compound 0.1265 µM) | relative viability ([1]; first compound 0.4 µM) | relative viability ([1]; first compound 1.265 µM) | relative viability ([1]; first compound 4 µM) | relative viability ([2]; first compound 0.08 µM) | relative viability ([2]; first compound 0.253 µM) | relative viability ([2]; first compound 0.8 µM) | relative viability ([2]; first compound 2.53 µM) | relative viability ([2]; first compound 8 µM) | relative viability ([3]; first compound 0.08 µM) | relative viability ([3]; first compound 0.253 µM) | relative viability ([3]; first compound 0.8 µM) | relative viability ([3]; first compound 2.53 µM) | relative viability ([3]; first compound 8 µM) | relative viability ([4]; first compound 0.04 µM) | relative viability ([4]; first compound 0.1265 µM) | relative viability ([4]; first compound 0.4 µM) | relative viability ([4]; first compound 1.265 µM) | relative viability ([4]; first compound 4 µM)
1 | NCI-H1755 | 0.813 | 0.749 | 0.801 | 0.348 | 0.215 | 0.702 | 0.674 | 0.737 | 0.668 | 0.607 | 0.502 | 0.49 | 0.405 | 0.448 | 0.428 | 0.898 | 0.743 | 0.443 | 0.21 | 0.166
2 | A-427 | 0.612 | 0.477 | 0.334 | 0.271 | 0.263 | 0.593 | 0.562 | 0.571 | 0.527 | 0.512 | 0.76 | 0.638 | 0.634 | 0.799 | 0.635 | 0.622 | 0.447 | 0.231 | 0.195 | 0.197
3 | SW 1573 | 0.586 | 0.441 | 0.14 | 0.0868 | 0.0758 | 0.493 | 0.524 | 0.587 | 0.4 | 0.26 | 0.709 | 0.659 | 0.515 | 0.479 | 0.524 | 1.03 | 0.932 | 0.249 | 0.0788 | 0.0726
4 | PC-14 | 1.01 | 0.624 | 0.259 | 0.0838 | 0.0619 | 0.179 | 0.209 | 0.165 | 0.119 | 0.0887 | 0.261 | 0.236 | 0.231 | 0.255 | 0.222 | 0.857 | 0.823 | 0.369 | 0.172 | 0.101
5 | LOU-NH91 | 0.775 | 0.853 | 0.731 | 0.575 | 0.525 | 0.873 | 0.832 | 0.806 | 0.792 | 0.77 | 0.552 | 0.609 | 0.538 | 0.594 | 0.567 | 0.418 | 0.484 | 0.38 | 0.393 | 0.329
6 | BEN | 1 | 0.733 | 0.548 | 0.372 | 0.287 | 0.87 | 0.714 | 0.691 | 0.634 | 0.599 | 0.3 | 0.31 | 0.295 | 0.309 | 0.325 | 0.687 | 0.51 | 0.267 | 0.16 | 0.122
7 | NCI-H2085 | 0.486 | 0.509 | 0.575 | 0.559 | 0.293 | 0.548 | 0.57 | 0.506 | 0.544 | 0.474 | 0.248 | 0.234 | 0.285 | 0.287 | 0.217 | 1.09 | 1.09 | 1.1 | 0.76 | 0.648
8 | LCLC-103H | 0.697 | 0.651 | 0.513 | 0.331 | 0.307 | 0.801 | 0.735 | 0.747 | 0.719 | 0.735 | 0.485 | 0.45 | 0.464 | 0.447 | 0.51 | 1.04 | 1.16 | 0.955 | 0.346 | 0.301
9 | NCI-H661 | 0.714 | 0.712 | 0.475 | 0.277 | 0.353 | 0.526 | 0.577 | 0.534 | 0.521 | 0.526 | 1.11 | 0.745 | 0.755 | 0.664 | 0.653 | 0.872 | 0.904 | 0.637 | 0.29 | 0.254
10 | NCI-H1792 | 0.376 | 0.441 | 0.566 | 0.433 | 0.238 | 0.475 | 0.562 | 0.497 | 0.372 | 0.291 | 0.829 | 0.607 | 0.743 | 0.608 | 0.72 | 0.938 | 1 | 1.09 | 0.663 | 0.425
11 | H3255 | 0.591 | 0.53 | 0.409 | 0.304 | 0.306 | 0.775 | 0.504 | 0.687 | 0.622 | 0.421 | 0.396 | 0.383 | 0.393 | 0.419 | 0.346 | 0.559 | 0.707 | 0.262 | 0.2 | 0.32
12 | EMC-BAC-2 | 0.762 | 0.589 | 0.466 | 0.324 | 0.35 | 1.01 | 0.944 | 0.999 | 0.922 | 0.716 | 0.346 | 0.339 | 0.176 | 0.259 | 0.332 | 0.96 | 0.842 | 0.274 | 0.162 | 0.155
13 | NCI-H1666 | 0.762 | 0.601 | 0.615 | 0.429 | 0.51 | 0.715 | 0.824 | 0.774 | 0.752 | 0.653 | 0.675 | 0.586 | 0.579 | 0.616 | 0.656 | 0.542 | 0.491 | 0.348 | 0.183 | 0.27
14 | HCC-366 | 0.369 | 0.376 | 0.514 | 0.305 | 0.0404 | 0.322 | 0.32 | 0.336 | 0.251 | 0.203 | 0.77 | 0.654 | 0.586 | 0.696 | 0.591 | 1.04 | 1.01 | 0.911 | 0.293 | 0.0253
15 | LCLC-97TM1 | 0.208 | 0.214 | 0.157 | 0.0691 | 0.0607 | 0.299 | 0.206 | 0.208 | 0.218 | 0.191 | 0.845 | 0.922 | 0.918 | 0.822 | 0.897 | 0.403 | 0.46 | 0.107 | 0.046 | 0.0727
